According to patent publication US5672715A, “Herbicidal substituted 3-aryl-pyrazoles” (Monsanto Company, priority 1995, dated 1997):
Read-outs that look alike come from different tables or passages of the source.

Experiments:
Format in all cases: in vivo
Yellow Foxtail [1] = assay: pre-emergence herbicide test; conditions: Setaria, read-out: % plant inhibition
How it was run: (§1)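 Test compound, dissolved or suspended in acetone or water, is applied to a topsoil layer covering freshly sown seeds. Pans stay in a greenhouse with watering from below, and plants are rated for percent inhibition approximately two weeks after treatment.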

Morning Glory [2] = assay: pre-emergence herbicide test; conditions: Ipomoea, pre-emergence, read-out: % plant inhibition
How it was run: as §1

Yellow Nutsedge [3] = assay: pre-emergence herbicide test; conditions: Cyperus, read-out: % plant inhibition
How it was run: as §1

Velvetleaf [4] = assay: pre-emergence herbicide test; conditions: Abutilon theophrasti, pre-emergence, read-out: % plant inhibition
How it was run: as §1

Common Chickweed = assay: post-emergence herbicide test; conditions: post-emergence, read-out: % plant inhibition
How it was run: (§2)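 Herbicidal effect measured as percent inhibition of each plant species after spraying. Application: atomizer, 170.3 kPa, 1870 L/Ha, about 0.4% emulsifier, to plants aged two to three weeks in greenhouse soil pans.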

Blackgrass = assay: post-emergence herbicide test; conditions: Alopecurus myosuroides, post-emergence, read-out: % plant inhibition; for inhibition at 7.95803 g/ha: 0.0071 lb/A; for inhibition at 40.0143 g/ha: 0.0357 lb/A; for inhibition at 200.072 g/ha: 0.1785 lb/A; for inhibition at 1000.92 g/ha: 0.893 lb/A
How it was run: as §2

Yellow Foxtail [5] = assay: post-emergence herbicide test; conditions: Setaria, read-out: % plant inhibition
How it was run: as §2

Cocklebur = assay: post-emergence herbicide test; conditions: Xanthium strumarium, post-emergence, read-out: % plant inhibition
How it was run: as §2

Corn = assay: post-emergence herbicide test; conditions: Zea mays, post-emergence, read-out: % plant inhibition
How it was run: as §2

Soybean = assay: post-emergence herbicide test; conditions: Glycine max, post-emergence, read-out: % plant inhibition
How it was run: as §2

Wheat = assay: post-emergence herbicide test; conditions: Triticum aestivum, post-emergence, read-out: % plant inhibition
How it was run: as §2

Morning Glory [6] = assay: post-emergence herbicide test; conditions: Ipomoea, post-emergence, read-out: % plant inhibition
How it was run: as §2

Barnyardgrass = assay: post-emergence herbicide test; conditions: Echinochloa crus-galli, post-emergence, read-out: % plant inhibition
How it was run: as §2

Yellow Nutsedge [7] = assay: post-emergence herbicide test; conditions: Cyperus, read-out: % plant inhibition
How it was run: as §2

Bedstraw Catchweed = assay: post-emergence herbicide test; conditions: Galium aparine, post-emergence, read-out: % plant inhibition
How it was run: as §2

Velvetleaf [8] = assay: post-emergence herbicide test; conditions: Abutilon theophrasti, post-emergence, read-out: % plant inhibition
How it was run: as §2

C#CCOc1cc(-c2nn(C)c(C(F)(F)F)c2C)c(F)cc1Cl [Compound 39]
inhibition at 7.95803 g/ha (Yellow Foxtail [1]; 0.0071 lb/A): 95% | inhibition at 40.0143 g/ha (Yellow Foxtail [1]; 0.0357 lb/A): 100% | inhibition at 200.072 g/ha (Yellow Foxtail [1]; 0.1785 lb/A): 100% | inhibition at 280.212 g/ha (Yellow Foxtail [1]; 0.25 lb/A): 100% | inhibition at 1000.92 g/ha (Yellow Foxtail [1]; 0.893 lb/A): 100% | inhibition at 7.95803 g/ha (Morning Glory [2]; 0.0071 lb/A): 70% | inhibition at 40.0143 g/ha (Morning Glory [2]; 0.0357 lb/A): 85% | inhibition at 200.072 g/ha (Morning Glory [2]; 0.1785 lb/A): 100% | inhibition at 1000.92 g/ha (Morning Glory [2]; 0.893 lb/A): 100% | inhibition at 7.95803 g/ha (Yellow Nutsedge [3]; 0.0071 lb/A): 70% | inhibition at 40.0143 g/ha (Yellow Nutsedge [3]; 0.0357 lb/A): 25% | inhibition at 200.072 g/ha (Yellow Nutsedge [3]; 0.1785 lb/A): 55% | inhibition at 1000.92 g/ha (Yellow Nutsedge [3]; 0.893 lb/A): 65% | inhibition at 7.95803 g/ha (Velvetleaf [4]; 0.0071 lb/A): 100% | inhibition at 40.0143 g/ha (Velvetleaf [4]; 0.0357 lb/A): 100% | inhibition at 200.072 g/ha (Velvetleaf [4]; 0.1785 lb/A): 100% | inhibition at 1000.92 g/ha (Velvetleaf [4]; 0.893 lb/A): 100% | inhibition at 7.95803 g/ha (Common Chickweed; 0.0071 lb/A): 0% | inhibition at 40.0143 g/ha (Common Chickweed; 0.0357 lb/A): 100% | inhibition at 200.072 g/ha (Common Chickweed; 0.1785 lb/A): 100% | inhibition at 1000.92 g/ha (Common Chickweed; 0.893 lb/A): 100% | inhibition at 7.95803 g/ha (Blackgrass; Table 4a): 10% | inhibition at 7.95803 g/ha (Blackgrass; Table 5a): 0% | inhibition at 40.0143 g/ha (Blackgrass; Table 4a): 35% | inhibition at 40.0143 g/ha (Blackgrass; Table 5a): 80% | inhibition at 200.072 g/ha (Blackgrass; Table 4a): 25% | inhibition at 200.072 g/ha (Blackgrass; Table 5a): 95% | inhibition at 1000.92 g/ha (Blackgrass; Table 4a): 70% | inhibition at 1000.92 g/ha (Blackgrass; Table 5a): 100% | inhibition at 7.95803 g/ha (Yellow Foxtail [5]; 0.0071 lb/A): 65% | inhibition at 40.0143 g/ha (Yellow Foxtail [5]; 0.0357 lb/A): 100% | inhibition at 200.072 g/ha (Yellow Foxtail [5]; 0.1785 lb/A): 100% | inhibition at 1000.92 g/ha (Yellow Foxtail [5]; 0.893 lb/A): 100% | inhibition at 7.95803 g/ha (Cocklebur; 0.0071 lb/A): 80% | inhibition at 40.0143 g/ha (Cocklebur; 0.0357 lb/A): 98% | inhibition at 200.072 g/ha (Cocklebur; 0.1785 lb/A): 80% | inhibition at 1000.92 g/ha (Cocklebur; 0.893 lb/A): 100% | inhibition at 7.95803 g/ha (Corn; 0.0071 lb/A): 50% | inhibition at 40.0143 g/ha (Corn; 0.0357 lb/A): 30% | inhibition at 200.072 g/ha (Corn; 0.1785 lb/A): 100% | inhibition at 1000.92 g/ha (Corn; 0.893 lb/A): 95% | inhibition at 7.95803 g/ha (Soybean; 0.0071 lb/A): 25% | inhibition at 40.0143 g/ha (Soybean; 0.0357 lb/A): 70% | inhibition at 200.072 g/ha (Soybean; 0.1785 lb/A): 70% | inhibition at 1000.92 g/ha (Soybean; 0.893 lb/A): 100% | inhibition at 7.95803 g/ha (Wheat; 0.0071 lb/A): 0% | inhibition at 40.0143 g/ha (Wheat; 0.0357 lb/A): 0% | inhibition at 200.072 g/ha (Wheat; 0.1785 lb/A): 15% | inhibition at 1000.92 g/ha (Wheat; 0.893 lb/A): 75% | inhibition at 7.95803 g/ha (Morning Glory [6]; 0.0071 lb/A): 95% | inhibition at 40.0143 g/ha (Morning Glory [6]; 0.0357 lb/A): 80% | inhibition at 200.072 g/ha (Morning Glory [6]; 0.1785 lb/A): 100% | inhibition at 1000.92 g/ha (Morning Glory [6]; 0.893 lb/A): 95% | inhibition at 7.95803 g/ha (Barnyardgrass; 0.0071 lb/A): 30% | inhibition at 40.0143 g/ha (Barnyardgrass; 0.0357 lb/A): 70% | inhibition at 200.072 g/ha (Barnyardgrass; 0.1785 lb/A): 98% | inhibition at 1000.92 g/ha (Barnyardgrass; 0.893 lb/A): 98% | inhibition at 7.95803 g/ha (Yellow Nutsedge [7]; 0.0071 lb/A): 0% | inhibition at 40.0143 g/ha (Yellow Nutsedge [7]; 0.0357 lb/A): 40% | inhibition at 200.072 g/ha (Yellow Nutsedge [7]; 0.1785 lb/A): 10% | inhibition at 1000.92 g/ha (Yellow Nutsedge [7]; 0.893 lb/A): 30% | inhibition at 7.95803 g/ha (Bedstraw Catchweed; 0.0071 lb/A): 0% | inhibition at 40.0143 g/ha (Bedstraw Catchweed; 0.0357 lb/A): 100% | inhibition at 200.072 g/ha (Bedstraw Catchweed; 0.1785 lb/A): 100% | inhibition at 1000.92 g/ha (Bedstraw Catchweed; 0.893 lb/A): 100% | inhibition at 7.95803 g/ha (Velvetleaf [8]; 0.0071 lb/A): 75% | inhibition at 40.0143 g/ha (Velvetleaf [8]; 0.0357 lb/A): 100% | inhibition at 200.072 g/ha (Velvetleaf [8]; 0.1785 lb/A): 100% | inhibition at 1000.92 g/ha (Velvetleaf [8]; 0.893 lb/A): 100%
